According to patent US20130096067A1, “DROSOPHILA TUMOR STEM CELL MODEL AND USES THEREOF” (priority 2011, published 2013):
“Also recorded” adds a separate entry of the source. Structures can show the parent of a compound that is named as a salt. Where two headings read alike, the source gives them in different places. Numbered stars: 1 amine (or outer) side, 2 acyl side, 3 side chain; on linkers, the order of the positions; unused ones are H or OH. Bridge positions count the residues as written; N and C are the ends. Square brackets hold non-standard residues; d marks the D form. Peptide text beside a SMILES is read from it. I, II: the chains in the order shown. Actinocin(9to1) = Cc1c2oc3c(C)ccc(C(=O)[*:1])c3nc-2c(C(=O)[*:2])c(N)c1=O; NMeV = CN[C@H](C(=O)O)C(C)C; Sar = CNCC(=O)O

How the values were obtained:
[1] = tested on: Raf-1^gof tumor cells; test: esg-Gal4 luciferase assay in whole-fly lysates of control and drug-treated flies (validation and replicate assays); format: in vivo, Drosophila
Experimental: (§1) Primary screening drugs were provided by the Harvard Institute for Chemistry and Cell Biology (ICCB; 480 known bioactives library), and the National Cancer Institute (NCI) Drug Therapeutics Program (library of 88 FDA-approved oncology drugs). Secondary assays were conducted with freshly prepared 10 mM stocks that were diluted 1:100 in fly food, giving a final concentration of 100 μM.
(§2) Drugs were dissolved in 100% DMSO. Drugs were mixed 1:100 with molten fly food at 37° C. and then aliquoted to either 5 mL tubes or 1 mL wells of a 96-well plate.
Flies were anesthetized and transferred in pools of 3 to 96-well plates containing 100 μL of glo lysis buffer (Promega E2661) and homogenized with a multiple homogenizer (Burkard Scientific BS00253) for 3-5 minutes. The plates were then centrifuged for 5 minutes at 4,000 rpm, and the lysates were then transferred to new 96-well “master” plates. Firefly luciferase assays were conducted with 20 μL of lysate as specified by Promega. Luminescence was counted using the Molecular Devices Analyst GT plate reader.
To exploit the TSC model for in vivo chemical screens, a high-throughput method was developed to track tumor growth, using a luciferase reporter assay instead of the conventional method of visualizing tumors with GFP. […] The esg-Gal4 driver was employed to express luciferase in the TSCs and the effects of various compounds were compared by measuring luciferase in homogenates of control and drug-treated flies.

[2] = tested on: Raf-1^gof TSCs; test: Visualization of Raf-1^gof tumors in dissected guts by esg-GFP and Delta staining; format: in vivo, Drosophila
Experimental: Samples were incubated 1 hour in 5% NDS blocking solution, overnight in primary antibody, 1.5 hours in secondary antibody and 6 minutes in DAPI. They were rinsed and washed between steps in PBS containing 0.1% Triton X-100. Finally they were placed in mounting media (Vectashield) and mounted for microscopy. Images were taken with a Leica TCS SP2 confocal microscope.
as §1, §2
Control flies were treated with DMSO.
Flies were treated with DMSO alone as a control.

[3] = tested on: Raf-1^gof intestinal tumors; conditions: for Fold: luciferase relative to DMSO, fed three consecutive days in vials; for Log2 (fold) (luciferase activity, log2 of the fold difference relative to DMSO controls) / Fold (luciferase activity, fold difference relative to DMSO controls): screen of 480 ICCB compounds in vials, compounds fed to flies with one-day old Raf-1^gof tumors, esg-Gal4 luciferase
[4] = tested on: Raf-1^gof intestinal tumors; test: Luciferase screen of FDA-approved (NCI) drugs in 96-well plates, flies with Raf-1^gof intestinal tumors; format: in vivo, Drosophila
[5] = tested on: JNK signaling; test: puc-LacZ reporter for JNK signaling in wild-type guts; format: in vivo, Drosophila; conditions: EC cells
Experimental: (§3) Flies were treated with DMSO alone as a control. […].
(§4) For example, subjecting the fly intestine to the detergent dextran sulfate sodium (DSS) or to pathogen infection, induces ECs to activate the JNK stress-related pathway and to express IL-6 related cytokines (Unpaireds/Upds) (Jiang et al., 2009; Buchon et al., 2009; Apidianakis et al., 2009). The Upds activate JAK-STAT signaling in the ISCs, driving them to overproliferate. To determine if these same pathways are activated in response to FDA anti-cancer drugs, the puc-lacZ reporter was used to monitor JNK signaling, and a Gal-4 enhancer trap to monitor expression of Upd-3, the Upd cytokine preferentially expressed in the gut in response to injury (Jiang et al., 2009).

[6] = tested on: JAK-STAT signaling; test: upd3-GFP reporter for JAK-STAT signaling in wild-type guts; format: in vivo, Drosophila; conditions: EC cells
Experimental: as §3, §4

[7] = esg-GFP in dissected guts, DMSO control
[8] = Table 3 summary of hits, Screen ICCB
[9] = average of Day 3 and Day 6 fold
[10] = log2 of the Day 3 fold difference in luciferase relative to DMSO controls
[11] = luciferase activity relative to DMSO controls, single dose of drug for three days, 96-well plates
[12] = six-day protocol: single dose for three days, then another dose for three more days
[13] = assessed three days later, averaged from multiple wells

| Compound | Fold [3, 8] [fold] | Avg (3 + 6) [4, 9] [fold] | Log2 (fold) [4, 10] | Day 3 Fold [4, 11] [fold] | Day 6 Fold [4, 12] [fold] | Log2 (fold) (luciferase activity, log2 of the fold difference relative to DMSO controls) ([3]; assessed three days later) | Fold (luciferase activity, fold difference relative to DMSO controls) [3, 13] | further results |
| --- | --- | --- | --- | --- | --- | --- | --- | --- |
| C[C@H](NC(=O)Cc1cc(F)cc(F)c1)C(=O)N[C@H]1N=C(c2ccccc2)c2ccccc2N(C)C1=O [Compound E, reference compound] | 2.696 | – | – | – | – | – | – | effect on luciferase activity ([1]; whole-animal extracts vs DMSO controls): augmented tumor growth and luciferase activity; effect on Raf-1^gof tumor cells / tumor growth [2, 7]: augmented tumor growth; also recorded: increased tumor growth; also recorded: dramatic expansion of the tumor; Log2 (fold) of luciferase activity relative to DMSO controls ([3]; ICCB compounds fed in vials to flies with one-day old Raf-1^gof tumors, assessed three days later): 1.431; Fold (luciferase activity relative to DMSO controls) ([3]; ICCB compounds fed in vials to flies with one-day old Raf-1^gof tumors, assessed three days later, averaged from multiple wells): 2.696 fold; Log2 (fold) [3, 8]: 1.431 |
| COc1cc2c(c(OC)c1OC)-c1ccc(OC)c(=O)cc1[C@@H](NC(C)=O)CC2 [colchicine] | – | – | – | – | – | – | – | effect on luciferase activity ([1]; in vivo): steep drop in luciferase activity; loss of luciferase activity ([1]; in vivo): about 80%; effect on Raf-1^gof tumor cells / tumor growth ([2]; in vivo): eliminated virtually all of the tumor cells; also recorded: eliminates virtually all of the Raf-1^gof tumor cells; also recorded: virtually all of the tumor cells were lost |
| Bleomycin | – | 0.521 | 0.060 | 1.043 | 0.000 | – | – | effect on Delta positive TSCs ([2]; Delta staining of dissected guts): failed to block TSCs; expression of puc-lacZ reporter (JNK signaling) [5]: induced JNK and JAK-STAT signaling; expression of upd3-GFP / Upd-3 reporter (JAK-STAT signaling) [6]: induced JNK and JAK-STAT signaling |
| COc1cc([C@@H]2c3cc4c(cc3[C@@H](O[C@@H]3O[C@@H]5CO[C@@H](C)O[C@H]5[C@H](O)[C@H]3O)[C@H]3COC(=O)[C@H]23)OCO4)cc(OC)c1O [Etoposide] | – | 0.817 | −0.134 | 0.911 | 0.722 | −0.532 | 0.691 | – |
| Cc1c2oc3c(C)ccc(C(=O)N[C@@H]4C(=O)N[C@H](C(C)C)C(=O)N5CCC[C@H]5C(=O)N(C)CC(=O)N(C)[C@@H](C(C)C)C(=O)O[C@@H]4C)c3nc-2c(C(=O)N[C@@H]2C(=O)N[C@H](C(C)C)C(=O)N3CCC[C@H]3C(=O)N(C)CC(=O)N(C)[C@@H](C(C)C)C(=O)O[C@@H]2C)c(N)c1=O [Dactinomycin] (I: T[dV]P[Sar][NMeV] / II: T[dV]P[Sar][NMeV]; ester I:1-I:C, II:1-II:C; linker I:N-II:N via Actinocin(9to1)) | 0.438 | 0.119 | −3.068 | 0.119 | – | −1.192 | 0.438 | – |
| CC[C@]1(O)C[C@@H]2CN(CCc3c([nH]c4ccccc34)[C@@](C(=O)OC)(c3cc4c(cc3OC)N(C)[C@H]3[C@@](O)(C(=O)OC)[C@H](OC(C)=O)[C@]5(CC)C=CCN6CC[C@]43[C@@H]65)C2)C1 [Vinblastine sulfate] | 0.204 | 0.158 | −2.445 | 0.184 | 0.131 | −2.290 | 0.204 | – |
| CN(Cc1cnc2nc(N)nc(N)c2n1)c1ccc(C(=O)N[C@@H](CCC(=O)O)C(=O)O)cc1 [Methotrexate] | 0.160 | 0.094 | −3.231 | 0.107 | 0.081 | −2.648 | 0.160 | expression of puc-lacZ reporter (JNK signaling) [5]: no effect on the expression of any of the reporters; expression of puc-lacZ reporter (JNK signaling) ([5]; listed as methotrexate): expressed neither reporter; expression of upd3-GFP / Upd-3 reporter (JAK-STAT signaling) [6]: no effect on the expression of any of the reporters; expression of upd3-GFP / Upd-3 reporter (JAK-STAT signaling) ([6]; listed as methotrexate): expressed neither reporter |
| O=C1CCC(N2C(=O)c3ccccc3C2=O)C(=O)N1 (stereo not shown) [Thalidomide] | – | 1.008 | 0.136 | 1.099 | 0.918 | −0.252 | 0.839 | – |
| Nc1ncnc2c1c(I)cn2[C@@H]1O[C@H](CO)[C@@H](O)[C@H]1O [5-iodotubercidin, reference compound] | 0.530 | – | – | – | – | −0.917 | 0.530 | effect on Raf-1^gof tumor cells / tumor growth [2, 7]: reduced tumor growth |
| CO[C@H]1C[C@@H]2CC[C@@H](C)[C@@](O)(O2)C(=O)C(=O)N2CCCC[C@H]2C(=O)O[C@H]([C@H](C)C[C@@H]2CC[C@@H](O)[C@H](OC)C2)CC(=O)[C@H](C)/C=C(\C)[C@@H](O)[C@@H](OC)C(=O)[C@H](C)C[C@H](C)/C=C/C=C/C=C/1C [Rapamycin] | 0.429 | 0.369 | −1.216 | 0.431 | 0.308 | −1.220 | 0.429 | – |
| CC1=C(/C=C/C(C)=C/C=C/C(C)=C/C(=O)O)C(C)(C)CCC1 [Tretinoin] | – | 0.871 | −0.040 | 0.972 | 0.769 | – | – | – |
| CN(C)c1nc(N(C)C)nc(N(C)C)n1 [Altretamine] | – | 0.611 | −0.625 | 0.649 | 0.574 | – | – | – |
| Oc1ncc(N(CCCl)CCCl)c(O)n1 [Uracil mustard] | – | – | – | – | – | – | – | Avg (3 + 6) ([4]; in vivo): 0.869 fold; Day 3 Fold ([4]; in vivo): 0.966 fold; Day 6 Fold ([4]; in vivo): 0.773 fold; Log2 (fold) ([4]; in vivo): −0.050 |
| N[C@@H](Cc1ccc(N(CCCl)CCCl)cc1)C(=O)O [Melphalan] | – | 0.939 | 0.001 | 1.001 | 0.876 | – | – | – |
| Nc1nc(Cl)nc2c1ncn2[C@H]1C[C@H](O)[C@@H](CO)O1 [Cladribine] | – | 0.852 | 0.072 | 1.051 | 0.652 | – | – | – |
| CO[C@@]12[C@H](COC(N)=O)C3=C(C(=O)C(C)=C(N)C3=O)N1C[C@@H]1N[C@@H]12 [Mitomycin C] | 0.470 | 0.204 | – | – | – | −1.088 | 0.470 | Day 3 Fold ([4]; po, 72 h): 0.279 fold; Log2 (fold) ([4]; po, 72 h): −1.842 |
| N.N.O=C([O-])C1(C(=O)[O-])CCC1.[Pt+2] [Carboplatin] | – | 1.159 | 0.059 | 1.042 | 1.276 | – | – | – |
| CNC(=O)c1cc(Oc2ccc(NC(=O)Nc3ccc(Cl)c(C(F)(F)F)c3)cc2)ccn1 [Sorafenib] | – | – | – | – | – | – | – | Avg (3 + 6) ([4]; in vivo): 1.046 fold; Day 3 Fold ([4]; in vivo): 0.752 fold; Day 6 Fold ([4]; in vivo): 1.339 fold; Log2 (fold) ([4]; in vivo): −0.410 |
